The term IC50 denotes the midpoint of a concentration-inhibition curve.

The source of these data is patent US8541588B2, “Sulfonamide derivatives” (Pfizer Limited, priority 2009, dated 2013).

Structures are written as SMILES. A value given as a limit tells only on which side of the number the result lay.

For this test, the target named is T1, Nav1.7 (or SCN9A) channel; HEK cells stably transfected with hSCN9A (Homo sapiens, UniProt Q15858).
T1 construct: expressed in transfected cells
T1 sequence (Q15858 whole entry): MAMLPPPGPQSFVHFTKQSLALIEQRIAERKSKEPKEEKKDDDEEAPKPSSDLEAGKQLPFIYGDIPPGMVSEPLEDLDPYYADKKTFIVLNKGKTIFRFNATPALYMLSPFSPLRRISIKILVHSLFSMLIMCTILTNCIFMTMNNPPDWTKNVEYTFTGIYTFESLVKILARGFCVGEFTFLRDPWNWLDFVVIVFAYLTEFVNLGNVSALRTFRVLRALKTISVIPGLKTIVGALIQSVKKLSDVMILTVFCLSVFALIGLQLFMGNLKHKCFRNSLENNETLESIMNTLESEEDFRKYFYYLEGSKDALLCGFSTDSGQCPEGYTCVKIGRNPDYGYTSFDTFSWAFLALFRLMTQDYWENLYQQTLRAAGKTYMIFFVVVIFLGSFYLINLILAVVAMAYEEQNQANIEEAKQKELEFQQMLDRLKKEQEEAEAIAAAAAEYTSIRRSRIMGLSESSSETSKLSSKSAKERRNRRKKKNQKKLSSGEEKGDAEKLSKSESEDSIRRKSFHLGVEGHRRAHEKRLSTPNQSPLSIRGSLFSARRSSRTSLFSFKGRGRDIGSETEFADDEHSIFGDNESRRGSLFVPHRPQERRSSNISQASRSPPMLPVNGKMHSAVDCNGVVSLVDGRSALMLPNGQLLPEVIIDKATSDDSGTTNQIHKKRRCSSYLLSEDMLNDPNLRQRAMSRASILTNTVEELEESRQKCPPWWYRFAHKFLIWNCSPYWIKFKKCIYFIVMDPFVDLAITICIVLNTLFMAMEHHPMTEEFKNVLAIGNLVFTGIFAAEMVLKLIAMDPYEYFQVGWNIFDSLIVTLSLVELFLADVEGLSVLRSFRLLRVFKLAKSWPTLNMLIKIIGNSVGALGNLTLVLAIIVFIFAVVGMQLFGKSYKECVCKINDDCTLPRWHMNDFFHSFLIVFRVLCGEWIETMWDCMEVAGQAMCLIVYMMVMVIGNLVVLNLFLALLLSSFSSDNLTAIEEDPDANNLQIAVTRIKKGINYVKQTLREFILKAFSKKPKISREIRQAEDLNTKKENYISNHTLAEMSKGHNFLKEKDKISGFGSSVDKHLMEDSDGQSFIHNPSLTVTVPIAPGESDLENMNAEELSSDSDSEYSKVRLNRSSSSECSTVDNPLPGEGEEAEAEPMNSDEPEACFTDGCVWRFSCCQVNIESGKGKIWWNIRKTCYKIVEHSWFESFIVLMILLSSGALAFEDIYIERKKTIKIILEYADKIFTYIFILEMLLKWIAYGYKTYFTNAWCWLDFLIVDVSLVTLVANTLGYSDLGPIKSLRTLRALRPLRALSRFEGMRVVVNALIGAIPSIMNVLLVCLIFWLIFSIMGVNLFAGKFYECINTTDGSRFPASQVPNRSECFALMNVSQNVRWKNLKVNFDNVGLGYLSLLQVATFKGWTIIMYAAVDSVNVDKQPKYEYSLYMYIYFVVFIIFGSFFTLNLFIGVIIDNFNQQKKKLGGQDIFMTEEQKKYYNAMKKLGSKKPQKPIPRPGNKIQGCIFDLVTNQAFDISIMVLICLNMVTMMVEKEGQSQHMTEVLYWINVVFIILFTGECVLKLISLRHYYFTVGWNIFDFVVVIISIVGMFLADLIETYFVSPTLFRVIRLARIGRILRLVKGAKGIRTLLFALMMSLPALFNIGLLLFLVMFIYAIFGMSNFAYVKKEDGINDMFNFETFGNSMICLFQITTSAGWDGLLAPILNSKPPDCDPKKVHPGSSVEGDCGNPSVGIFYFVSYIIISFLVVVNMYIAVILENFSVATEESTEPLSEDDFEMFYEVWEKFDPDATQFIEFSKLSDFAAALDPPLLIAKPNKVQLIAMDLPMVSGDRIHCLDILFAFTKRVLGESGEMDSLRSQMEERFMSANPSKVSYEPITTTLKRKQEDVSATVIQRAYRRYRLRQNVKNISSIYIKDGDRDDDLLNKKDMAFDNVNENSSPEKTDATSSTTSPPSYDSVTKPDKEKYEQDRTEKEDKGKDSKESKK
Put plainly: Nav1.7 block, PatchXpress 7000 automated whole-cell voltage clamp, estimated IC50 (EIC50). Type of test: cell-based. The following applies: estimated IC50; hSCN9A HEK cells, PatchXpress platform; Examples 283-814.
Take `Nc1ncccc1-c1cc(Cl)ccc1Oc1cc(F)c(S(=O)(=O)Nc2ncns2)cc1Cl` [Example 618, 4-[2-(2-aminopyridin-3-yl)-4-chlorophenoxy]-5-chloro-2-fluoro-N-1,2,4-thiadiazol-5-ylbenzenesulfonamide]: the IC50 was 11 nM. As to `O=S(=O)(Nc1ncns1)c1cc(Cl)c(Oc2ccc(Cl)cc2C2CNC2)cc1F` [Example 619, 4-(2-azetidin-3-yl-4-chlorophenoxy)-5-chloro-2-fluoro-N-1,2,4-thiadiazol-5-ylbenzenesulfonamide], the 50% inhibitory concentration (IC50) was 45 nM. Turning to `O=S(=O)(Nc1ncns1)c1cc(Cl)c(Oc2ccc(F)cc2-c2ccn[nH]2)cc1F` [Example 620, 5-chloro-2-fluoro-4-[4-fluoro-2-(1H-pyrazol-5-yl)phenoxy]-N-1,2,4-thiadiazol-5-ylbenzenesulfonamide], the IC50 was 4.8 nM. `Cn1nccc1-c1cc(F)ccc1Oc1cc(F)c(S(=O)(=O)Nc2ncns2)cc1Cl` [Example 621, 5-chloro-2-fluoro-4-(4-fluoro-2-(1-methyl-1H-pyrazol-5-yl)phenoxy)-N-(1,2,4-thiadiazol-5-yl)benzenesulfonamide]: the IC50 was 75 nM. For the compound `Nc1nccc(-c2cc(F)ccc2Oc2cc(F)c(S(=O)(=O)Nc3ncc(Cl)s3)cc2F)n1` [Example 622, 4-[2-(2-aminopyrimidin-4-yl)-4-fluorophenoxy]-N-(5-chloro-1,3-thiazol-2-yl)-2,5-difluorobenzenesulfonamide], the IC50 is above 1000 nM. For the compound `O=S(=O)(Nc1ccc(F)cn1)c1cc(Cl)c(Oc2ccc(Cl)cc2C2CCNCC2)cc1F` [Example 623, 5-chloro-4-(4-chloro-2-piperidin-4-ylphenoxy)-2-fluoro-N-(5-fluoropyridin-2-yl)benzenesulfonamide], the IC50 was 46 nM.

Regarding `Cn1nccc1-c1cc(F)ccc1Oc1cc(F)c(S(=O)(=O)Nc2cscn2)cc1Br` [Example 625, 5-bromo-2-fluoro-4-[4-fluoro-2-(1-methyl-1H-pyrazol-5-yl)phenoxy]-N-1,3-thiazol-4-ylbenzenesulfonamide], the IC50 is 18 nM.

Take `Cc1cc(S(=O)(=O)Nc2cscn2)c(F)cc1Oc1ccc(F)cc1-c1ccnn1C` [Example 626, 2-fluoro-4-[4-fluoro-2-(1-methyl-1H-pyrazol-5-yl)phenoxy]-5-methyl-N-1,3-thiazol-4-ylbenzenesulfonamide]: the IC50 was 120 nM.

As to `CCc1cc(S(=O)(=O)Nc2cscn2)c(F)cc1Oc1ccc(F)cc1-c1ccnn1C` [Example 627, 5-ethyl-2-fluoro-4-[4-fluoro-2-(1-methyl-1H-pyrazol-5-yl)phenoxy]-N-1,3-thiazol-4-ylbenzenesulfonamide], the IC50 was 160 nM. `Cc1cc(S(=O)(=O)Nc2cscn2)ccc1Oc1ccccc1-c1ccnn1C` [Example 628, 3-methyl-4-[2-(1-methyl-1H-pyrazol-5-yl)phenoxy]-N-1,3-thiazol-4-ylbenzenesulfonamide]: the IC50 is 1000 nM.

Consider `Cn1nccc1-c1ccccc1Oc1ccc(S(=O)(=O)Nc2cscn2)cc1I` [Example 629, 3-iodo-4-[2-(1-methyl-1H-pyrazol-5-yl)phenoxy]-N-1,3-thiazol-4-ylbenzenesulfonamide], for which the IC50 was 240 nM. On to `Cc1scnc1NS(=O)(=O)c1cc(Cl)c(Oc2ccc(F)cc2-c2ccnn2C)cc1F` [Example 630, 5-chloro-2-fluoro-4-(4-fluoro-2-(1-methyl-1H-pyrazol-5-yl)phenoxy)-N-(5-methylthiazol-4-yl)benzenesulfonamide], for which the IC50 was above 1000 nM.

For `Cn1nccc1-c1cc(Cl)ccc1Oc1ncc(S(=O)(=O)Nc2cscn2)cc1Cl` [Example 631, 5-chloro-6-(4-chloro-2-(1-methyl-1H-pyrazol-5-yl)phenoxy)-N-(thiazol-4-yl)pyridine-3-sulfonamide], the IC50 was 3300 nM.

On to `O=S(=O)(Nc1ncns1)c1cc(F)c(Oc2ccc(C(F)(F)F)cc2-c2cnccn2)cc1F` [Example 632, 2,5-difluoro-4-[2-pyrazin-2-yl-4-(trifluoromethyl)phenoxy]-N-1,2,4-thiadiazol-5-ylbenzenesulfonamide], for which the IC50 was 100 nM. With `O=S(=O)(Nc1ncns1)c1cc(F)c(Oc2ccc(C(F)(F)F)cc2C2CCOCC2)cc1F` [Example 633, 2,5-difluoro-4-[2-(tetrahydro-2H-pyran-4-yl)-4-(trifluoromethyl)phenoxy]-N-1,2,4-thiadiazol-5-ylbenzenesulfonamide], the IC50 was 27 nM. The figure for `Nc1cc(-c2cc(F)ccc2Oc2cc(F)c(S(=O)(=O)Nc3ncns3)cc2F)ccn1` [Example 634, 4-[2-(2-aminopyridin-4-yl)-4-fluorophenoxy]-2,5-difluoro-N-1,2,4-thiadiazol-5-ylbenzenesulfonamide] is 11 nM. In the case of `Cc1[nH]ncc1-c1cc(Cl)ccc1Oc1cc(F)c(S(=O)(=O)Nc2ncns2)cc1F` [Example 635, 4-[4-chloro-2-(5-methyl-1H-pyrazol-4-yl)phenoxy]-2,5-difluoro-N-1,2,4-thiadiazol-5-ylbenzenesulfonamide], the IC50 is 6.3 nM. For the compound `O=S(=O)(Nc1ncns1)c1cc(F)c(Oc2ccc(Cl)cc2-c2ccn[nH]2)cc1F` [Example 637, 4-[4-Chloro-2-(1H-pyrazol-5-yl)phenoxy]-2,5-difluoro-N-1,2,4-thiadiazol-5-ylbenzenesulfonamide], the IC50 is 16 nM. In the case of `N#Cc1cc(S(=O)(=O)Nc2nccs2)ccc1Oc1cccc(-c2cccc(N)n2)c1` [Example 639, 4-[3-(6-aminopyridin-2-yl)phenoxy]-3-cyano-N-1,3-thiazol-2-ylbenzenesulfonamide], the IC50 was 6900 nM.

Regarding `CC(=O)N1CC(c2cc(Cl)ccc2Oc2ccc(S(=O)(=O)Nc3nccs3)cc2C#N)C1` [Example 640, 4-[2-(1-acetylazetidin-3-yl)-4-chlorophenoxy]-3-cyano-N-1,3-thiazol-2-ylbenzenesulfonamide], the IC50 is 1000 nM. Turning to `N#Cc1cc(S(=O)(=O)Nc2nccs2)ccc1Oc1ccc(F)cc1-c1cnn(CC(F)(F)F)c1` [Example 641, 3-cyano-4-{4-fluoro-2-[1-(2,2,2-trifluoroethyl)-1H-pyrazol-4-yl]phenoxy}-N-1,3-thiazol-2-ylbenzenesulfonamide], the IC50 is 1300 nM. On to `N#Cc1cc(S(=O)(=O)Nc2nccs2)ccc1Oc1ccc(Cn2cccn2)cc1F` [Example 642, 3-cyano-4-[2-fluoro-4-(1H-pyrazol-1-ylmethyl)phenoxy]-N-1,3-azol-2-ylbenzenesulfonamide], for which the IC50 was 2600 nM. With `N#Cc1cc(S(=O)(=O)Nc2nccs2)ccc1Oc1ccc(-n2ccc(C(F)(F)F)n2)nc1` [Example 643, 3-cyano-N-1,3-thiazol-2-yl-4-({6-[3-(trifluoromethyl)-1H-pyrazol-1-yl]pyridin-3-yl}oxy)benzenesulfonamide], the IC50 is 2100 nM.

On to `N#Cc1cc(S(=O)(=O)Nc2nccs2)ccc1Oc1ccc(Oc2ccccc2)nc1` [Example 644, 3-cyano-4-[(6-phenoxypyridin-3-yl)oxy]-N-1,3-thiazol-2-ylbenzenesulfonamide], for which the IC50 is 2600 nM. For `Cn1nccc1-c1ccc(Oc2ccc(S(=O)(=O)Nc3nccs3)cc2C#N)cn1` [Example 645, 3-cyano-4-{[6-(1-methyl-1H-pyrazol-5-yl)pyridin-3-yl]oxy}-N-1,3-thiazol-2-ylbenzenesulfonamide], the IC50 was above 1000 nM.
